Values after ≈ are worked out from the molar mass of the structure shown. Structures can show the parent of a compound that is named as a salt. Where two headings read alike, the source gives them in different places.
Legend:
[1] = system: super sensitive Gram-negative Escherichia coli (E. coli) BAS849; assay: Antibacterial activity, microbroth dilution MIC, E. coli BAS849; type: cell-based; settings: Escherichia coli, read-out: MIC, BAS849
[2] = system: Gram-positive Staphylococcus aureus (S. aureus) 29213; assay: Antibacterial activity, microbroth dilution MIC, S. aureus 29213; type: cell-based; settings: Staphylococcus aureus; S. aureus 29213, microbroth dilution; read-out: MIC, 29213
[3] = system: control Gram-negative E. coli 25922 strain; assay: Antibacterial activity, microbroth dilution MIC, E. coli 25922; type: cell-based, Escherichia coli; settings: Escherichia coli; E. coli 25922, microbroth dilution; read-out: MIC, 25922
[4] = system: quinolone resistant E. coli LZ3111; assay: Antibacterial activity, MIC, quinolone resistant E. coli LZ3111; type: cell-based, Escherichia coli; settings: Escherichia coli, read-out: MIC, LZ3111
Description: The antibacterial activity from a microbroth dilution method may be presented as the minimum inhibitory concentration (MIC in […]). The MIC value is the lowest concentration of a drug which prevents macroscopically visible bacterial growth under test conditions.
Mutations in these regions are known to confer a high level resistance to the quinolone class of antibiotics.

[5] = E. coli BAS849, microbroth dilution

Row | Compound | MIC [1] [µg/mL] | MIC [2] [µg/mL] | MIC [3] [µg/mL] | MIC [4] [µg/mL] | MIC [1, 5] [µg/mL]
1 | CCc1cc(C(=O)O)c(=O)[nH]c1-c1ccc(N2CC(N)C3(CC3)C2)cc1.O=C(O)C(F)(F)F (stereo not drawn) [Cpd 214, 6-[4-(7-amino-5-azaspiro[2.4]hept-5-yl)phenyl]-5-ethyl-2-oxo-1,2-dihydropyridine-3-carboxylic acid trifluoroacetate] | 1 to 3.5 | 12.5 to 150 | 12.5 to 150 | 12.5 to 150 | 
2 | CCc1cc(C(=O)O)c(=O)[nH]c1-c1ccc(N2C[C@H]3C[C@@H](NC)C[C@H]3C2)cc1 [Cpd 215, 5-ethyl-6-{4-[(3aR,5r,6aS)-5-(methylamino)hexahydrocyclopenta[c]pyrrol-2(1H)-yl]phenyl}-2-oxo-1,2-dihydropyridine-3-carboxylic acid trifluoroacetate] | 1 to 3.5 | 12.5 to 150 | 3.5 to 12.5 | 12.5 to 150 | 
3 | CCc1cc(C(=O)O)c(=O)[nH]c1-c1ccc(N2CCC(C3(N)CCC3)C2)cc1.O=C(O)C(F)(F)F (stereo not drawn) [Cpd 218, 6-{4-[3-(1-aminocyclobutyl)pyrrolidin-1-yl]phenyl}-5-ethyl-2-oxo-1,2-dihydropyridine-3-carboxylic acid trifluoroacetate] | 1 to 3.5 | 12.5 to 150 | 3.5 to 12.5 | 12.5 to 150 | 
4 | CCc1cc(C(=O)O)c(=O)[nH]c1-c1ccc(N2C[C@@H]3CCC[C@]3(C(=O)O)C2)cc1.O=C(O)C(F)(F)F [Cpd 220, (3aR,6aR)-2-[4-(5-carboxy-3-ethyl-6-oxo-1,6-dihydropyridin-2-yl)phenyl]hexahydrocyclopenta[c]pyrrole-3a(1H)-carboxylic acid trifluoroacetate] | 3.5 to 12.5 | 12.5 to 150 | 12.5 to 150 | 12.5 to 150 | 
5 | CCc1cc(C(=O)O)c(=O)[nH]c1-c1ccc(N2CCC(N(C)C)C2)cc1F (stereo not drawn) [Cpd 221, 6-{4-[3-(dimethylamino)pyrrolidin-1-yl]-2-fluorophenyl}-5-ethyl-2-oxo-1,2-dihydropyridine-3-carboxylic acid] |  | 12.5 to 150 (≈ 33.5 to 402 µM) | 3.5 to 12.5 (≈ 9.37 to 33.5 µM) | 12.5 to 150 (≈ 33.5 to 402 µM) | 1 to 3.5 (≈ 2.68 to 9.37 µM)
6 | CCc1cc(C(=O)O)c(=O)[nH]c1-c1ccc(N2CCC(O)CC2)cc1 [Cpd 222, 5-ethyl-6-[4-(4-hydroxypiperidin-1-yl)phenyl]-2-oxo-1,2-dihydropyridine-3-carboxylic acid] |  | 12.5 to 150 (≈ 36.5 to 438 µM) | 12.5 to 150 (≈ 36.5 to 438 µM) | 12.5 to 150 (≈ 36.5 to 438 µM) | 1 to 3.5 (≈ 2.92 to 10.2 µM)
7 | CCc1cc(C(=O)O)c(=O)[nH]c1-c1ccc(N2CCC(N(C)C)CC2)cc1 [Cpd 223, 6-{4-[4-(dimethylamino)piperidin-1-yl]phenyl}-5-ethyl-2-oxo-1,2-dihydropyridine-3-carboxylic acid] |  | 12.5 to 150 (≈ 33.8 to 406 µM) | 12.5 to 150 (≈ 33.8 to 406 µM) | 12.5 to 150 (≈ 33.8 to 406 µM) | 12.5 to 150 (≈ 33.8 to 406 µM)
8 | CCc1cc(C(=O)O)c(=O)[nH]c1-c1ccc(N2CCC(OC)CC2)cc1 [Cpd 224, 5-ethyl-6-[4-(4-methoxypiperidin-1-yl)phenyl]-2-oxo-1,2-dihydropyridine-3-carboxylic acid] |  | 12.5 to 150 (≈ 35.1 to 421 µM) | 12.5 to 150 (≈ 35.1 to 421 µM) | 12.5 to 150 (≈ 35.1 to 421 µM) | < 1
9 | CCc1cc(C(=O)O)c(=O)[nH]c1-c1ccc(N2CCC(N)CC2)cc1 [Cpd 228, 6-[4-(4-aminopiperidin-1-yl)phenyl]-5-ethyl-2-oxo-1,2-dihydropyridine-3-carboxylic acid] |  | 12.5 to 150 (≈ 36.6 to 439 µM) | 12.5 to 150 (≈ 36.6 to 439 µM) | 12.5 to 150 (≈ 36.6 to 439 µM) | 12.5 to 150 (≈ 36.6 to 439 µM)
10 | CCc1cc(C(=O)O)c(=O)[nH]c1-c1ccc(N2CCC(n3ccnn3)C2)cc1 (stereo not drawn) [Cpd 230, 5-ethyl-2-oxo-6-{4-[3-(1H-1,2,3-triazol-1-yl)pyrrolidin-1-yl]phenyl}-1,2-dihydropyridine-3-carboxylic acid] |  | 3.5 to 12.5 (≈ 9.22 to 32.9 µM) | 1 to 3.5 (≈ 2.64 to 9.22 µM) | 12.5 to 150 (≈ 32.9 to 395 µM) | < 1
11 | CCc1cc(C(=O)O)c(=O)[nH]c1-c1ccc(N2CCC(C)(O)C2)cc1 (stereo not drawn) [Cpd 233, 5-ethyl-6-[4-(3-hydroxy-3-methylpyrrolidin-1-yl)phenyl]-2-oxo-1,2-dihydropyridine-3-carboxylic acid] |  | 12.5 to 150 (≈ 36.5 to 438 µM) | 3.5 to 12.5 (≈ 10.2 to 36.5 µM) | 12.5 to 150 (≈ 36.5 to 438 µM) | < 1
12 | CCc1cc(C(=O)O)c(=O)[nH]c1-c1ccc(N2CCC(CNCc3ccccc3Cl)C2)cc1 (stereo not drawn) [Cpd 234, 6-[4-(3-{[(2-chlorobenzyl)amino]methyl}pyrrolidin-1-yl)phenyl]-5-ethyl-2-oxo-1,2-dihydropyridine-3-carboxylic acid] |  | 12.5 to 150 (≈ 26.8 to 322 µM) | 1 to 3.5 (≈ 2.15 to 7.51 µM) | 12.5 to 150 (≈ 26.8 to 322 µM) | < 1

— US9650395B2, “Antibacterial compounds and methods for use” (PTC Therapeutics, Inc., priority 2011, dated 2017)
